pIC50: −log10 of the molar value. “And” between values parts separate entries of the source, which are not always exact repeats. Identical values can stand only once. Like-named read-outs stand apart in the source and are kept apart here.
How the values were obtained:
[1] = Prediction of human pharmacokinetic parameters and human therapeutic dosage (single species scaling from rat); details: human, plasma; for AUC: read-out: calc. AUC (human); for clearance: predicted (fu-corrected) from rat PK, read-out: pred. CL (human) (converted)
Method: The human pharmacokinetic (PK) parameters (Table 9) were predicted based on the in vivo PK parameters obtained for rats (single species scaling), taking into account the interspecies differences in the free fraction (fu) in the plasma. The effective AUC (area under curve) was determined based on the measured plasma concentration time profile for in vivo efficacy in the PC3 tumour model of the mouse (nu/nu mouse). The therapeutic human dosage was determined using the predicted human clearance (CL), assuming 100% bioavailability (F=1) and using the effective AUC in the animal model according to the formula below: […]

[2] = Effective AUC from plasma concentration time profile in the PC3 tumour model; format: in vivo, mouse; details: nu/nu, plasma, oral, read-out: ther. AUC (mouse)
Method: The human pharmacokinetic (PK) parameters (Table 9) were predicted based on the in vivo PK parameters obtained for rats (single species scaling), taking into account the interspecies differences in the free fraction (fu) in the plasma. The effective AUC (area under curve) was determined based on the measured plasma concentration time profile for in vivo efficacy in the PC3 tumour model of the mouse (nu/nu mouse).

[3] = Maximum tolerated dose (MTD) in female nude mice; format: in vivo, mouse; details: for Deaths: 21 days; for MTD at 21 days: female, NMRI-nude (nu/nu), mouse, in vivo, administration once per day
Method: To this end, initially the maximum tolerable dose (MTD) was determined using the following protocol:
The MTD was defined as the highest dose which could be administered without any animal dying during the treatment phase, and without any body weight loss of more than 10% compared to the initial weight.
(§1) Administration route: oral
• (Solutol HS15: polyoxyethylene ester of 12-hydroxystearic acid) Administration volume: 10 ml/kg: Protocol: see Table 7
The treatment phase was followed by an observation phase of 21 days.

human PC-3 cells = details: for Deaths / T/C: 2 administrations per day; for T/C: final tumour weight; for tolerability (good: body weight change <=minus 10% and 100% survival): administration 2 times per day
Method: Xenograft models in immunosuppressed mice were used to determine the antitumour activity in living organisms.
Use was made primarily of a prostate carcinoma model with hormone-independent human PC-3 cells in male nude mice (NMRI-nude (nu/nu) mice, Taconic M&B A/S). To this end, 3 million tumour cells (suspended in medium+Matrigel 1:1, final 0.1 ml) were injected subcutaneously into the side of each animal. When the tumours extended to an area of 20-30 mm^2, the mice were randomized into therapy groups and therapy was initiated. […] At this point in time, the experiment was terminated in all groups and the prepared tumours were weighed.
The T/C value was calculated as primary success parameter using the effect on the final tumour weight: mean tumour weight in the treatment group divided by mean of the tumour weight in the vehicle group.
as §1
Vehicle: PEG400/ethanol/Solutol HS 15 (70/5/25, v/v/v)
Administration volume: 10 ml/kg
Number of mice: see Table 8

human ACC2 = human ACC2 (Homo sapiens (Human), UniProt O00763); assay: Human ACC2 enzyme assay (ADP-Glo); details: read-out: ACC 2 IC50; individual measurement (measurement no./preparation no. in table)
Chain of human ACC2 (O00763 27-2458 limits assumed): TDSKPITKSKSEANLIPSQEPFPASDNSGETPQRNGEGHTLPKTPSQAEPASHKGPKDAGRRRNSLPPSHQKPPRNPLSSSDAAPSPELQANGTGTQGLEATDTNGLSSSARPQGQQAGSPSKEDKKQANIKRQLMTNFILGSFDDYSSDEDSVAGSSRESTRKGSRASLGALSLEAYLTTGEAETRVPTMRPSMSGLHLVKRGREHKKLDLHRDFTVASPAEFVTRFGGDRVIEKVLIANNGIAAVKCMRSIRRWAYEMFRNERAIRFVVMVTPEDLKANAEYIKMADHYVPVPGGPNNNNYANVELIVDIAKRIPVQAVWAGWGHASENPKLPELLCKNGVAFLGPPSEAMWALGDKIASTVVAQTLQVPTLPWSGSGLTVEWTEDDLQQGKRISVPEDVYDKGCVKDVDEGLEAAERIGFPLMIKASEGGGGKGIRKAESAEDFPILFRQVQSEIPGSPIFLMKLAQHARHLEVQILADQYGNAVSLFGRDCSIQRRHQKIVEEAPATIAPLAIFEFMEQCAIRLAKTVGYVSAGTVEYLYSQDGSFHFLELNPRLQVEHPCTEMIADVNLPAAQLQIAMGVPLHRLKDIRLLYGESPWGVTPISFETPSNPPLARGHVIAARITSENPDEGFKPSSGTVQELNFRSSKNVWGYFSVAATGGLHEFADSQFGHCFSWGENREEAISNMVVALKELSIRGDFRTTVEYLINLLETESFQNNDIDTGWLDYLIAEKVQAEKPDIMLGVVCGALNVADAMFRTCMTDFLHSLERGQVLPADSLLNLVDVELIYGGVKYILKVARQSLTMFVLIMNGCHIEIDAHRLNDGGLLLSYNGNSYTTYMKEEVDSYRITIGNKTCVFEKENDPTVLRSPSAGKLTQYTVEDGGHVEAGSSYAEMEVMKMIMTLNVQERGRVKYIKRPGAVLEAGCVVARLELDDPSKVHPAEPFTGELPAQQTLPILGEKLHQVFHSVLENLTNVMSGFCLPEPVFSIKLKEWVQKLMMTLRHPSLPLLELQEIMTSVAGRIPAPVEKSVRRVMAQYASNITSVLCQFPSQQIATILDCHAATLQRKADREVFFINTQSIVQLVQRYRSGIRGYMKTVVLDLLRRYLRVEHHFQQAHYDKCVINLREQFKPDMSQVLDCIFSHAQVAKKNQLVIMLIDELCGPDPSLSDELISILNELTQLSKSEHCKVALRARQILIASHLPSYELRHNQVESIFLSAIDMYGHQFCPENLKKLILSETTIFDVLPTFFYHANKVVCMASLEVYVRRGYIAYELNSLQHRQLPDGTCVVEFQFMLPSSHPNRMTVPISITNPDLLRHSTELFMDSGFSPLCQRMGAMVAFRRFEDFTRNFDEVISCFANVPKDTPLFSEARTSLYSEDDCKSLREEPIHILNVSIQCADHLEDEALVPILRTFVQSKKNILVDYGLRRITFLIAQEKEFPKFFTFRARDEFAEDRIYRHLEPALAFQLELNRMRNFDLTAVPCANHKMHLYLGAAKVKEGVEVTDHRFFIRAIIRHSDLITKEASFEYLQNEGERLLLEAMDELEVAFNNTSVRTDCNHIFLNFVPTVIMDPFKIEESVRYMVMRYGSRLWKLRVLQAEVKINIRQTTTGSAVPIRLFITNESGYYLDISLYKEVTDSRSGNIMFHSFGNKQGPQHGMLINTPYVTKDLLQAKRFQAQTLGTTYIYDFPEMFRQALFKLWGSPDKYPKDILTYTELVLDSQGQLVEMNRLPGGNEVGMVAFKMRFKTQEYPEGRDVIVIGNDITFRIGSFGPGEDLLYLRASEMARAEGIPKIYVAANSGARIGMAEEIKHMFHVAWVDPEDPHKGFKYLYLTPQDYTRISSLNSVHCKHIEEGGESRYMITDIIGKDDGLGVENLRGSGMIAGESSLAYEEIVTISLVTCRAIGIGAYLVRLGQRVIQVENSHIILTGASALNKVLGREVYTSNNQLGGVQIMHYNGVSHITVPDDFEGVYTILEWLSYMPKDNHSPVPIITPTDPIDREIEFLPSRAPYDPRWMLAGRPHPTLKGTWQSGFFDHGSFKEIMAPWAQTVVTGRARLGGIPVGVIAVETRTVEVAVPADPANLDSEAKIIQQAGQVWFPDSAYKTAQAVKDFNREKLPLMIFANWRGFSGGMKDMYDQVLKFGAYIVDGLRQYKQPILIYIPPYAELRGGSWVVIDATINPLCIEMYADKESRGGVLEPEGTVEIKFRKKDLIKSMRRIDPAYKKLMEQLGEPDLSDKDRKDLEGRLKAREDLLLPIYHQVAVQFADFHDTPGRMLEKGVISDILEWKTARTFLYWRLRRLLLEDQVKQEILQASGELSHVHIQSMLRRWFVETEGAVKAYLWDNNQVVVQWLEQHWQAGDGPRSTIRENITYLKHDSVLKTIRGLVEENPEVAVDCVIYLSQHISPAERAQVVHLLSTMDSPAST

[4] = Membrane affinity logMA (MA-Transil); format: physicochemical; details: buffer pH 7.4
Method: Assays for Determining Membrane Affinity logMA and Protein Binding to Human Serum Albumin (HSA):
Determination of membrane affinity and protein binding to human serum albumin (HSA) was carried out via Transil technology (literature: A. Loidl-Stahlhofen, A. Eckert, T. Hartmann, M. Schöttner J Pharm Sci 90, 599-606 (2001)). Transil® (commercially available from Sovicell in Leipzig, Germany) are glass beads (diameter 10-12 μm) coated with a double-layer membrane of phosphatidylcholine (MA-Transil) or covalently attached human serum albumin (HSA-Transil).
To determine the logMA and the protein binding constant to HSA, the commercially available TRANSIL Intestinal Absorption & HSA Binding Combined Assay Kit was used. This is a 96-well microtitre plate (96 well-MTP) which is filled with Transil and can be used to determine MA-Transil and HSA-Transil binding of in each case eight active compounds. For each active compound, the Transil plate provides a row of 12 wells. Two wells serve as reference and are only filled with buffer pH 7.4. Five further wells contain MA-Transil in various increasing concentrations, the five remaining wells contain HSA-Transil in various increasing concentrations.
To determine binding of an active compound to Transil, the supernatant of the wells with Transil was quantified against the reference solution without Transil via HPLC-MS coupling (HPLC-MS=high performance liquid chromatography/mass spectrometry).
This is how the individual steps of the assay were carried out:
From the internal substance store, the active compounds were delivered in a 96-well MTP. This plate is referred to as mother plate. Each well contained 30 μl of a 10 mmol solution of active compound in DMSO (dimethyl sulphoxide). Two wells at the start (well A1) and at the end of the plate (well H12) were filled with 30 μl of a 10 mmol solution of warfarin in DMSO. Warfarin, whose membrane affinity and binding to HSA is known, serves to check whether the measurement is correct. The mother plate was used to prepare a daughter plate with a 1 to 4000 dilution with a mixture of buffer pH 7.4 and DMSO in a ratio of 1+1. The active compound concentration of each well was 2.5 μmol/liter, the volume of each well was 400 μl.
Using a Hamilton pipetting robot Microlab STAR, the 96 active compounds from the daughter plate were divided onto 12 Transil plates in total. From each well of the daughter plate, 12 times 20 μl were removed. The concentration of each well of the Transil plate was 0.25 μmol/liter, which corresponds to a dilution of 1 to 10. The DMSO content was 5%.
The filled Transil plates were each resuspended for two minutes, then allowed to stand at room temperature for at least two minutes and then centrifuged at 600 rotations per minute for five minutes. The pipetting robot was then used to remove 20 μl of supernatant from each well of the Transil plate and to transfer these to a separate microtitre plate. Here, the supernatants of in each case four Transil plates were pooled in a microtitre plate, so that at the end there were three pooled microtitre plates with in each case 80 μl of solution and an active compound concentration of 62.5 nM per well.
Prior to quantification of the active compounds by HPLC-MS, an optimization has to be carried out for each active compound where by way of a single injection daughter ion and optimum electrical voltages are determined. To this end, the pipetting robot prepared a dilution of the mother plate of 1 to 10 000 000 in an acetonitrile/water mixture in a ratio of 8+2 in a separate microtitre plate. This microtitre plate was measured by HPLC-MS using the software Discovery Quant Optimize from AB Sciex. The three pooled microtitre plates were measured by HPLC-MS using the software Discovery Quant Analyze from AB Sciex. […]

[5] = from mouse dosage 80 mg/kg 2 × per day
[6] = dosage (mouse) 80 mg/kg 2 × per day
[7] = 100 mg/kg oral, 1 administration per day

CO[C@]1(C(F)(F)F)CC[C@]2(CC1)NC(=O)C(c1cc(-c3ccc(Cl)cc3)ccc1C)=C2O [Example 1-1, (5r,8r)-3-(4′-Chloro-4-methylbiphenyl-3-yl)-4-hydroxy-8-methoxy-8-(trifluoromethyl)-1-azaspiro[4.5]dec-3-en-2-one]
AUC [1, 5]: 1160 µg·h/mL
clearance [1]: 2 mL/h/kg
AUC [2, 6]: 289 µg·h/mL
Deaths ([3]; 12.5 mg/kg oral, 1 administration per day): 0 of 4
Deaths ([3]; 25 mg/kg oral, 1 administration per day): 0 of 4
Deaths ([3]; 50 mg/kg oral, 1 administration per day): 1 of 4
Deaths ([3]; 75 mg/kg oral, 1 administration per day): 0 of 4
Deaths [3, 7]: 0 of 4
MTD at 21 days ([3]; 21-day treatment, oral): > 100 mg/kg
Deaths (human PC-3 cells; 80 mg/kg oral, 15 days): 0 of 10
T/C (human PC-3 cells; 80 mg/kg oral, 15 days): 0.34
tolerability (good: body weight change <=minus 10% and 100% survival) (human PC-3 cells; 80 mg/kg): good tolerability

CO[C@]1(C(F)(F)F)CC[C@]2(CC1)NC(=O)C(c1cc(-c3ccc(Cl)c(F)c3)ccc1C)=C2O [Example 1-2, (5r,8r)-3-(4′-Chloro-3′-fluoro-4-methylbiphenyl-3-yl)-4-hydroxy-8-methoxy-8-(trifluoromethyl)-1-azaspiro[4.5]dec-3-en-2-one]
AUC ([1]; from mouse dosage 40 mg/kg 2 × per day): 355 µg·h/mL
AUC [1, 5]: 842 µg·h/mL
clearance [1]: 9 mL/h/kg
AUC ([2]; dosage (mouse) 40 mg/kg 2 × per day): 66 µg·h/mL
AUC [2, 6]: 156 µg·h/mL
Deaths (human PC-3 cells; 40 mg/kg oral, 17 days): 0 of 9
T/C (human PC-3 cells; 40 mg/kg oral, 17 days): 0.44
tolerability (good: body weight change <=minus 10% and 100% survival) (human PC-3 cells; 40 mg/kg): good tolerability
Deaths (human PC-3 cells; 80 mg/kg oral, 17 days): 0 of 9
T/C (human PC-3 cells; 80 mg/kg oral, 17 days): 0.28
tolerability (good: body weight change <=minus 10% and 100% survival) (human PC-3 cells; 80 mg/kg): good tolerability

COC[C@]1(OC)CC[C@@]2(CC1)NC(=O)C(c1cc(-c3ccc(Cl)cc3)ccc1C)=C2O [Example 1-3, (5r,8r)-3-(4′-Chloro-4-methylbiphenyl-3-yl)-4-hydroxy-8-methoxy-8-(methoxymethyl)-1-azaspiro[4.5]dec-3-en-2-one]
pIC50 (human ACC2): 5.09 and 5.18
logMA [4]: <1.0

COC[C@]1(OC)CC[C@@]2(CC1)NC(=O)C(c1cc(-c3ccc(Cl)c(F)c3)ccc1C)=C2O [Example 1-4, (5r,8r)-3-(4′-Chloro-3′-fluoro-4-methylbiphenyl-3-yl)-4-hydroxy-8-methoxy-8-(methoxymethyl)-1-azaspiro[4.5]dec-3-en-2-one]
AUC [1, 5]: 4130 µg·h/mL
clearance [1]: 3 mL/h/kg
AUC [2, 6]: 712 µg·h/mL
Deaths ([3]; 25 mg/kg oral, 2 administrations per day): 0 of 4
Deaths ([3]; 50 mg/kg oral, 2 administrations per day): 0 of 4
Deaths ([3]; 75 mg/kg oral, 2 administrations per day): 0 of 4
Deaths [3, 7]: 0 of 4
Deaths ([3]; 100 mg/kg oral, 2 administrations per day): 0 of 4
MTD ([3]; 21-day treatment, administration twice per day, oral): higher than 100 mg/kg
MTD at 21 days ([3]; 21-day treatment, oral): > 100 mg/kg
Deaths (human PC-3 cells; 80 mg/kg oral, 17 days): 0 of 10
T/C (human PC-3 cells; 80 mg/kg oral, 17 days): 0.29
tolerability (good: body weight change <=minus 10% and 100% survival) (human PC-3 cells; 80 mg/kg): good tolerability

Cc1ccc(-c2ccc(Cl)cc2)cc1C1=C(O)[C@]2(CC[C@](O)(C(F)(F)F)CC2)NC1=O [V.1-c, (5r,8r)-3-(4′-Chloro-4-methylbiphenyl-3-yl)-4,8-dihydroxy-8-(trifluoromethyl)-1-azaspiro[4.5]dec-3-en-2-one]
logMA [4]: 2.1

Cc1ccc(-c2ccc(Cl)c(F)c2)cc1C1=C(O)[C@]2(CC[C@](O)(C(F)(F)F)CC2)NC1=O [V.2-c, (5r,8r)-3-(4′-Chloro-3′-fluoro-4-methylbiphenyl-3-yl)-4,8-dihydroxy-8-(trifluoromethyl)-1-azaspiro[4.5]dec-3-en-2-one]
logMA [4]: 2.3

COC[C@H]1CC[C@]2(CC1)NC(=O)C(c1cc(-c3ccc(Cl)cc3)ccc1C)=C2O [V.3-b, (5s,8s)-3-(4′-Chloro-4-methylbiphenyl-3-yl)-4-hydroxy-8-(methoxymethyl)-1-azaspiro[4.5]dec-3-en-2-one]
logMA [4]: 2.08

COC[C@H]1CC[C@]2(CC1)NC(=O)C(c1cc(-c3ccc(Cl)c(F)c3)ccc1C)=C2O [V.4-b, (5s,8s)-3-(4′-Chloro-3′-fluoro-4-methylbiphenyl-3-yl)-4-hydroxy-8-(methoxymethyl)-1-azaspiro[4.5]dec-3-en-2-one]
pIC50 (human ACC2): 5.95
logMA [4]: 2.13
